Assay results published in PMC5793714, “Functional implications of corticosteroid-binding globulin N-glycosylation” (Journal of Molecular Endocrinology, 2017).

Assays:
rat CBG = molecular target: T1, rat CBG (Rattus norvegicus, UniProt P31211); test: saturation binding, dextran-coated charcoal, Scatchard
T1 construct: gene Serpina6; full-length cDNA in pcDNA3, secreted mature N-glycosylated protein from stably transfected CHO-S cells (also Lec1 and Lec2 lines), FPLC semi-purified or concentrated medium; no tag told
T1 sequence (P31211 23-396): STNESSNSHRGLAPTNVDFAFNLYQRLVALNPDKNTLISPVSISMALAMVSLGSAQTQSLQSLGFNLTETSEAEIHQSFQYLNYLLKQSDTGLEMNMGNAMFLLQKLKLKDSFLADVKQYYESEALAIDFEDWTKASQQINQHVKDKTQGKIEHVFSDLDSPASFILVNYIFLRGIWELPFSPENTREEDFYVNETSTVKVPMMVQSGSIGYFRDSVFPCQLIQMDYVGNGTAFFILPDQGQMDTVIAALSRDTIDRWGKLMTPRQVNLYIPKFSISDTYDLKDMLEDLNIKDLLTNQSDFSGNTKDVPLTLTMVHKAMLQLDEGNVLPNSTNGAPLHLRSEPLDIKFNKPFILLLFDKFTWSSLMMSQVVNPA

[1] = molecular target: T2, human CBG (corticosteroid-binding globulin, SERPINA6) (Homo sapiens, UniProt P08185); test: as above
T2 construct: full-length cDNA in pRc/CMV, secreted mature N-glycosylated protein from stably transfected CHO-S cells (also Lec1 and Lec2 lines), semi-purified by HiTrap QFF FPLC or concentrated medium; no tag told
T2 sequence (P08185 23-405): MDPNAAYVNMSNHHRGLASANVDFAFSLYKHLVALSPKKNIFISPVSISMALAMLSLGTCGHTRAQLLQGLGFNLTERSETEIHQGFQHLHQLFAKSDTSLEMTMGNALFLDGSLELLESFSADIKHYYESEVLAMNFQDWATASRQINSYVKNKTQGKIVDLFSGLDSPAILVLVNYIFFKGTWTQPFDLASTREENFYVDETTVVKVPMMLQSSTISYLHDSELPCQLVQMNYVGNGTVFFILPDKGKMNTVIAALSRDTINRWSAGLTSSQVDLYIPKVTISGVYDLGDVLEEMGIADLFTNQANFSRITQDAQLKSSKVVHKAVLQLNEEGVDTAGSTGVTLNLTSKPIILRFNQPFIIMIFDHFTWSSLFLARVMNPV

| Kd (rat CBG) [nM] | Kd [1] [nM] | SMILES |
| --- | --- | --- |
| 2.1 | – | C[C@]12C[C@H](O)[C@H]3[C@@H](CCC4=CC(=O)CC[C@@]43C)[C@@H]1CC[C@@H]2C(=O)CO [corticosterone] |
| – | 1.1 | C[C@]12CCC(=O)C=C1CC[C@@H]1[C@@H]2[C@@H](O)C[C@@]2(C)[C@H]1CC[C@]2(O)C(=O)CO [cortisol] |
